According to patent US12595226B2, “Carbonate containing lipid compounds and compositions for intracellular delivery of therapeutic agents” (ModernaTX, Inc., priority 2019, dated 2026):

Assay: Residual lipid levels in the liver of mice after LNP administration
Assay type: in vivo, CD-1 mice
Settings: calculation assumes a 25 g mouse with a 1.5 g liver, >95% equals very slowly metabolism of the lipid

Row | Approx. Percent Total Dose of Parent Lipid Remaining at 24 h [%] | SMILES
1 | 2 | CCCCCCCCCOC(=O)OCCCCCCN(CCO)CCCCCCCC(=O)OC(CCCCCCCC)CCCCCCCC [Compound 6, Heptadecan-9-yl 8-((2-hydroxyethyl)(6-(((nonyloxy)carbonyl)oxy)hexyl)amino)octanoate]
2 | 51 | CCCCCCCCC(CCCCCCCC)OC(=O)CCCCCCCN(CCO)CCCCCCOC(=O)OCCC(CCCCC)CCCCC [Compound 64, Heptadecan-9-yl 8-((2-hydroxyethyl)(6-((((3-pentyloctyl)oxy)carbonyl)oxy)hexyl)amino)octanoate]
3 | >95 | CCCCCCCCC(CCCCCCCC)OC(=O)CCCCCCCN(CCCCCCOC(=O)OCCC(CCCCCC)CCCCCC)CCCNc1c(NC)c(=O)c1=O [Compound 65, Heptadecan-9-yl 8-((6-((((3-hexylnonyl)oxy)carbonyl)oxy)hexyl)(3-((2-(methylamino)-3,4-dioxocyclobut-1-en-1-yl)amino)propyl)amino)octanoate]
4 | 48 | CCCCCCCCC(CCCCCCCC)OC(=O)CCCCCCCN(CCO)CCCCCCOC(=O)OCCC(CCCCCC)CCCCCC [Compound 66, Heptadecan-9-yl 8-((6-((((3-hexylnonyl)oxy)carbonyl)oxy)hexyl)(2-hydroxyethyl)amino)octanoate]
5 | >95 | CCCCCCCCC(CCCCCCCC)OC(=O)CCCCCCCN(CCCCCCOC(=O)OCCC(CCCCC)CCCCC)CCCNc1c(NC)c(=O)c1=O [Compound 67, Heptadecan-9-yl 8-((3-((2-(methylamino)-3,4-dioxocyclobut-1-en-1-yl)amino)propyl)(6-((((3-pentyloctyl)oxy)carbonyl)oxy)hexyl)amino)octanoate]
